Test results published in patent US20240327792A1, “FLUID SHEAR STRESS FOR EX VIVO ACTIVATION OF IMMUNE EFFECTOR CELLS” (Vanderbilt University, priority 2021, published 2024).

Key:
[1] = tested on: NF-κB phosphorylation in DC2.4 cells; experiment: NF-κB phosphorylation in DC2.4 dendritic cells (flow cytometry); format: cell-based, murine
Experimental: (§1) Prior to prepping cells, the cone-and-plate was incubated with 5% bovine serum albumin (BSA) for 1 h in order to block non-specific binding. DC2.4 cells were lifted with trypsin, washed, and resuspended in complete RMPI media at 200,000 cells/mL. Cells were placed on a rotator for static conditions. For shear conditions, an FSS of 5.0 dyn/cm^2 was applied for 1 h using cone-and-plate flow device. Static and shear conditions were either left untreated or treated with lipopolysaccharide (LPS) potent stimulator at 10 μg/mL.
(§2) Flow cytometry analysis and antibody staining: Following FSS stimulation, cells were plated overnight or immediately prepped for flow cytometry analysis. For intracellular proteins such as NF-κB and AP-1, cells were fixed with 4% paraformaldehyde for 10 min. Cells were washed with HBSS and permeabilized with 100% ice cold methanol. Cells were washed again and stained for 15 min in the dark with antibodies fluorescently-labeled with PE fluorophore while suspended in 1% BSA. Guava easyCyte 5HT flow cytometer was used to measure fluorescent intensity, with FloJo software used for gating and analysis. For extracellular proteins analyzed after 24 h, cells were lifted with trypsin, washed, and incubated with fluorescently-labeled antibodies in 1% BSA and then washed a final time.
(§3) Inhibition of NF-κB: NF-κB was inhibited using caffeic acid phenethyl ester (CAPE). DC2.4 cells were lifted, washed and suspended in 200,000 cells/mL complete media. 1 μL of CAPE was added to this suspension. Cells were placed on a rotator for 30 min to allow for effective inhibition, and then added to the cone-and-plate viscometer for FSS stimulation. Following FSS, NF-κB phosphorylation analysis was performed after 1 h FSS. Following stimulation, 100,000 cells were plated overnight for cytokine analysis and 100,000 cells were immediately analyzed for NF-κB phosphorylation. NF-κB and cytokine assays were performed as described previously.
GsMTx4: GsMTx-4 (ab141871) was purchased from Abcam. […] Following FSS, cells were prepared and analyzed for NF-κB phosphorylation as previously described. […]

[2] = tested on: DC2.4 cells; experiment: Intracellular cytokine staining of DC2.4 cells after 24 h (IL-6, IL-12, CCR7); format: cell-based, murine
Experimental: as §1
Cytokine staining: For intracellular cytokine staining (ICS), cells were plated overnight following FSS stimulation. After 24 h, cells were treated with 1:1000 GolgiPlug Transport Inhibitor to block cytokine secretion. After 4 h, cells were lifted and stained following the previously described protocol for staining intracellular proteins. IL-6, IL-12 and CCR7 were investigated in this study.
as §3

[3] = tested on: ZAP70 phosphorylation in Jurkat cells; experiment: ZAP70 phosphorylation of Jurkat cells treated with FSS and CD3/CD28 antibodies (flow cytometry); format: cell-based, human
Experimental: T cell activation by FSS: Jurkat or primary T cells were collected and resuspended at a concentration of 200,000 cells/mL in complete RPMI 1640 media. The cells were treated with or without functional grade antibodies targeting CD3 (OKT3) and CD28 (CD28.2) at a concentration of 2 μg/mL for both antibodies. The T cells were then loaded into a Brookfield cone-and-plate viscometer for FSS treatment as described previously in Mitchell & King (Mitchell, M. J. et al. New J. Phys. 2013 15:015008). In a cone-and-plate viscometer the FSS magnitude is equal in all radial locations of the viscometer. The shear rate (G) is defined by the equation:
τ=μG • where μ is the viscosity (cP) of the fluid. In these experiments, viscosity was approximately 2.5 cP. Before FSS treatment, the cone-and-plate viscometer was cleaned thoroughly with 70% ethanol. The stationary plate and the rotating cone were then incubated with 5% BSA for 1 h to block nonspecific adhesion. The cells were exposed to fluid shear stress ranging from 0.5-5.0 dyn/cm^2 for times ranging from 15 to 60 min. Primarily, the cells were treated with FSS of magnitude 5.0 dyn/cm^2 for 1 h.
Where indicated, Jurkat cells were pretreated with different compounds prior to antibody and FSS treatment. The Jurkat cells were incubated with either 5 μM Cyclosporin A (CSA), 10 μM Cytochalasin D (CCD), 10 μM GsMTx-4, or 2 mM EGTA 30 min prior to antibody and FSS treatment.
Flow cytometry antibody staining: When staining for intracellular proteins, the cells were immediately fixed with 4% paraformaldehyde for 10 min. The cells were washed thoroughly and permeabilized with 100% ice cold methanol for 10 min. After washing the cells, the cells were stained with the indicated fluorescent-tagged antibodies for 15 min in 1% BSA. The fluorescence of each sample was measured using a Gauva easyCyte 5HT flow cytometer. Gating was performed using FlowJo software. For Jurkat samples, debris was gated out and fluorescence was quantified using FlowJo software.

[4] = tested on: DC2.4 cells; experiment: Costimulatory molecule expression in DC2.4 cells 24 h after stimulation; format: cell-based, murine; conditions: 10 μg/mL LPS, 24 h after 1 h stimulation, regardless of shear stress
Experimental: as §1, §2

[5] = after CAPE treatment and FSS, 24 h
[6] = Jurkat cells pretreated 10 μM 30 min prior to FSS and antibody treatment, compared to FSS and antibodies without the inhibitor

O=C(/C=C/c1ccc(O)c(O)c1)OCCc1ccccc1 [CAPE, caffeic acid phenethyl ester]
NF-κB phosphorylation compared to untreated cells ([1]; DC2.4 cells, CAPE 30 min before 1 h FSS): significant reduction
CCR7 production [2, 5]: strong trend in the reduction
IL-6 production [2, 5]: strong trend in the reduction
IL-12 release [2, 5]: significant reduction

C=C1[C@@H](C)[C@H]2[C@H](Cc3ccccc3)NC(=O)[C@]23[C@H](OC(C)=O)/C=C/[C@@](C)(O)C(=O)[C@@H](C)C/C=C/[C@H]3[C@@H]1O [CCD, Cytochalasin D]
ZAP70 phosphorylation (activation), antibody-only condition ([3]; Jurkat cells pretreated 10 μM 30 min, antibody-only, no FSS): not significantly altering
ZAP70 phosphorylation [3, 6]: significantly reduced

O=C(O)CN(CCOCCOCCN(CC(=O)O)CC(=O)O)CC(=O)O [EGTA]
ZAP70 phosphorylation ([3]; Jurkat cells pretreated 2 mM for 30 min, then FSS and antibodies, compared to FSS and antibodies only): significant reduction

GsMTx-4
ZAP70 phosphorylation [3, 6]: significant reduction
NF-κB phosphorylation ([1]; DC2.4 cells incubated with 10 μmol GsMTx4, FSS, two replicates): reduced

lipopolysaccharide [LPS]
NF-κB phosphorylation, FSS with LPS versus FSS without LPS ([1]; DC2.4 cells, 10 μg/mL LPS, 5.0 dyn/cm^2 FSS, 1 h): no significant difference
CD40 costimulatory molecule expression enhanced in the presence of LPS [4]: significant
CD80 costimulatory molecule expression enhanced in the presence of LPS [4]: trend
release of IL-6, IL-12 and CCR7, FSS versus FSS with LPS ([2]; 10 μg/mL LPS, 24 h after 1 h 5.0 dyn/cm^2 FSS): not a significant difference
